The results in this text go back to ChEMBL document CHEMBL1201862, “PubChem BioAssay data set” (2004).

Calls of active or inactive are those of the source.

One assay concerns the target Mucolipin-3 (Homo sapiens, UniProt Q8TDD5). Put plainly: Dose response cell-based high-throughput screening assay for agonists of the transient receptor potential channel ML3 (TRPML3). [Related pubchem assays: 1526, 1424, 1448 ]. It counts as functional.
The target of the next assay is Ion channel NompC (Danio rerio, UniProt Q7T1G6). Description: Fluorescence counterscreen assay for TRPML3 agonists: dose response cell-based high-throughput screening assay to identify agonists of the transient receptor potential channel N1 (TRPN1). [Related pubchem assays: 1526, 1424, 1448 ]. The class given is functional.
Chain of Ion channel NompC (Q7T1G6 whole entry): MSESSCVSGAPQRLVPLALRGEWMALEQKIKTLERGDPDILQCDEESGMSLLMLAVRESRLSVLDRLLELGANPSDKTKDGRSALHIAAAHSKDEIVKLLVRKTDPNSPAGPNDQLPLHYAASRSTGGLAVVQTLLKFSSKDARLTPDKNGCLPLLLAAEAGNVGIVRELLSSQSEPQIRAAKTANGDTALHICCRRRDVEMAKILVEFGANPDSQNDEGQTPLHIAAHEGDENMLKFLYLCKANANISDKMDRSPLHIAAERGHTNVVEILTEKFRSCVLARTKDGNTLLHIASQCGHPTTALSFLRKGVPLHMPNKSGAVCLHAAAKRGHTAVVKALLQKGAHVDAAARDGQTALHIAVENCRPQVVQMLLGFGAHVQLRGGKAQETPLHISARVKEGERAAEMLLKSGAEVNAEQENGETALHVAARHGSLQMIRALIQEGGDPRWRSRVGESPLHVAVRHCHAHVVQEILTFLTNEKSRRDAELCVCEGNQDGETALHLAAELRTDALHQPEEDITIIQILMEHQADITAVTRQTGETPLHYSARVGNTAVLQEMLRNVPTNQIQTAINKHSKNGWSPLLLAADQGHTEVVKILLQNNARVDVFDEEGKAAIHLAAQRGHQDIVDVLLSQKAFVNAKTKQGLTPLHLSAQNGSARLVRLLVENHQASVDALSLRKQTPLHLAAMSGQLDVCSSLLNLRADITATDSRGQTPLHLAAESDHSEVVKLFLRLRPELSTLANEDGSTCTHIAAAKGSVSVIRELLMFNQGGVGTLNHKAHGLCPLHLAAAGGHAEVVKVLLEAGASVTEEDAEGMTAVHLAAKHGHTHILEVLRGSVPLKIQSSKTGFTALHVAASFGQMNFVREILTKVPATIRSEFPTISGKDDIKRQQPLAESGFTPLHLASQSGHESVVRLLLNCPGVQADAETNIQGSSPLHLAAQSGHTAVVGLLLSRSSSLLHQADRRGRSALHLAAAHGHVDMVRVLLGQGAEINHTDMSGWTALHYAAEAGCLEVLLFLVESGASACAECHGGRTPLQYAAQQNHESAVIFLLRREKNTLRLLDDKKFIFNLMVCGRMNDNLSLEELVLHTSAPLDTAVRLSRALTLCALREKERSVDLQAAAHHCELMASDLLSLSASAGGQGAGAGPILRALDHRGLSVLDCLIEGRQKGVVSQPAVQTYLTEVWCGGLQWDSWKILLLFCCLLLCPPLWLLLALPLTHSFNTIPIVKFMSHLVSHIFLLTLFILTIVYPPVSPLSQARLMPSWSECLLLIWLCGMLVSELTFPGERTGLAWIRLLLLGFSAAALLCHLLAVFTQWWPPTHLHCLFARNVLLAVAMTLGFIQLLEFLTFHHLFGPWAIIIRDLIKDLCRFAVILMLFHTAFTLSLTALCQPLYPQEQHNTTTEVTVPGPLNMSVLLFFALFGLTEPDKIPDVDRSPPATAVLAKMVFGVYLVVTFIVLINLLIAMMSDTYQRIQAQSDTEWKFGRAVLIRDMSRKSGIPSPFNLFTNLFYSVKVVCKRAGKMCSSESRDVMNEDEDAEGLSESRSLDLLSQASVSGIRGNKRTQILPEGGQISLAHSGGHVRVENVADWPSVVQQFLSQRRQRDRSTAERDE
Assay [1] in a line: antiviral protection against BTV-induced cell death – arbovirus, BSR cells, confirmation (AID 1250).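 Further: protection from viral cytopathic effect measured as cell viability by ATP luminescence.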 It counts as functional.
Assay [2] concerns the target T1, Serine/threonine-protein phosphatase (Homo sapiens, UniProt Q9BPW0).
T1 sequence (Q9BPW0 whole entry): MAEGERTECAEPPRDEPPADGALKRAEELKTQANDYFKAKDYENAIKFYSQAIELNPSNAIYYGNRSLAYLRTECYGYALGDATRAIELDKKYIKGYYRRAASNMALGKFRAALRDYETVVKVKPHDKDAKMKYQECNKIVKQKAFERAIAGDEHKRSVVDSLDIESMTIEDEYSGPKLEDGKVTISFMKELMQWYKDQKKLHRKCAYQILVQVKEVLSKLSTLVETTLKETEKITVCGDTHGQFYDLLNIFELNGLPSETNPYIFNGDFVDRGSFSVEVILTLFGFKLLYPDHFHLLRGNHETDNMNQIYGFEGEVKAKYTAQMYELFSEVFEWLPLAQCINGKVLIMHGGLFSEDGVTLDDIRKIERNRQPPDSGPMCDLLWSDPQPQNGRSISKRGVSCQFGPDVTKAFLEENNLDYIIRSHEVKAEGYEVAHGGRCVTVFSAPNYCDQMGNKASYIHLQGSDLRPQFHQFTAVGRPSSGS
Put plainly: inhibition of protein phosphatase 5 activity – biochemical, fluorescence, dose response (AID 2395).

The target of assay [3] is Serine/threonine-protein phosphatase PP1-alpha catalytic subunit (Homo sapiens, UniProt P62136). Put plainly: inhibition of protein phosphatase 1 activity – biochemical, fluorescence, dose response (AID 2394).
Chain of Serine/threonine-protein phosphatase PP1-alpha catalytic subunit (P62136 whole entry): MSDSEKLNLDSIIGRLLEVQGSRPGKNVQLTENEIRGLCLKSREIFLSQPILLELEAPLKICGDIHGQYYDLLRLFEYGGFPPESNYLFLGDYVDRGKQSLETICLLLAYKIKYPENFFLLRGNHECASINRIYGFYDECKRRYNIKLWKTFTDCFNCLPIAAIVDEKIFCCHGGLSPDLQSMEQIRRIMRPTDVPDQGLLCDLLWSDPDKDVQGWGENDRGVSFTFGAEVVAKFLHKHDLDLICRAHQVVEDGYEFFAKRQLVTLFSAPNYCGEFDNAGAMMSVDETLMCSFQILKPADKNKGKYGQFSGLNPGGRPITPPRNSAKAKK
Assay [4] can be described thus: Luminescence Cell-Based Dose Confirmation HTS to Identify Inhibitors of Polyadenylation. The class given is functional.
For assay [5], the target named is T2, Aryl hydrocarbon receptor (Homo sapiens, UniProt P35869).
T2 sequence (P35869 whole entry): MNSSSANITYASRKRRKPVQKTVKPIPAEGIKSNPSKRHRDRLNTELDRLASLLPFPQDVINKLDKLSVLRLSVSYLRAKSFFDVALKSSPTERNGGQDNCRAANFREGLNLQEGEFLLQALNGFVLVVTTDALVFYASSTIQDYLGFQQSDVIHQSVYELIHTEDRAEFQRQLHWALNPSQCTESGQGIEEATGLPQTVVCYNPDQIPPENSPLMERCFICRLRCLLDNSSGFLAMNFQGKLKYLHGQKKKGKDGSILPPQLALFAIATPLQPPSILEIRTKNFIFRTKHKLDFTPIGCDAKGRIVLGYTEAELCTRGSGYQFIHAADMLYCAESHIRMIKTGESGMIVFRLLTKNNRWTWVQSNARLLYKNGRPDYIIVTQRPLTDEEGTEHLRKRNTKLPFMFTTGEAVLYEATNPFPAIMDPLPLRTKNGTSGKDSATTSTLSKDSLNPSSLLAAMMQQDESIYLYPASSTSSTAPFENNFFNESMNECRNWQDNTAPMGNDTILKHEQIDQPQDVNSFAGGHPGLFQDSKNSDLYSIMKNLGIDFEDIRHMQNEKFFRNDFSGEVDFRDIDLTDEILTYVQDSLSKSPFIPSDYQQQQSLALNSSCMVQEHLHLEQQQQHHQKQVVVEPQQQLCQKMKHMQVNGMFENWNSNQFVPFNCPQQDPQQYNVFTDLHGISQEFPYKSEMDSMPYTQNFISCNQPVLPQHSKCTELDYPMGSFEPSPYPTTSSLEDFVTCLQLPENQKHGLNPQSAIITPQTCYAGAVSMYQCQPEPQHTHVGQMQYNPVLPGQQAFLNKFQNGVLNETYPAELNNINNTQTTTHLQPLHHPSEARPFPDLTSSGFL
Put plainly: Luminescence-based cell-based high throughput dose response assay for activators of the Aryl Hydrocarbon Receptor (AHR). [Related pubchem assays: 2796 (Primary screen (AHR activators in singlicate)), 2845 (Confirmation screen (AHR activators in triplicate)), 434939 (Counterscreen (PXR activators in triplicate)), 2804 (Summary (AHR activators))]. It counts as ADME. (A counterscreen serves to expose hits that act by an unwanted route or on another target.)

Assay [6] deals with FAD-linked sulfhydryl oxidase ALR (Homo sapiens, UniProt P55789). Put plainly: ALR-catalysed DTT oxidation blockers – biochemical, H2O2 detection, luminescence, cherry-pick, dose response (AID 493248).
Chain of FAD-linked sulfhydryl oxidase ALR (P55789 whole entry): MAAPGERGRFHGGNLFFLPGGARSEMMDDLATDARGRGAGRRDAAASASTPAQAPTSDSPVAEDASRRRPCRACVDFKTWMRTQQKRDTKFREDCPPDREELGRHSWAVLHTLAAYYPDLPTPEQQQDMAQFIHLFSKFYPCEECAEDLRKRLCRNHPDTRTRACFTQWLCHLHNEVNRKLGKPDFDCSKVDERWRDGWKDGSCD
Assay [7] deals with T3, Ubiquitin-conjugating enzyme E2 N (Homo sapiens, UniProt P61088).
T3 sequence (P61088 whole entry): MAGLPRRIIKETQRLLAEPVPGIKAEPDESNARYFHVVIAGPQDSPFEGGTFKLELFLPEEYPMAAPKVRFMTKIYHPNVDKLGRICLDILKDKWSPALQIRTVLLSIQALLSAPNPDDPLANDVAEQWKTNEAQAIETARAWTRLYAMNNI
It counts as functional.

The target of the next assay is T4, Bcl-2-related protein A1 (Mus musculus, UniProt Q07440).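 Further: confirmatory dose–response counterscreen on Bfl-1, used to check hits from a UBC13 polyubiquitin inhibitor campaign.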
T4 sequence (Q07440 whole entry): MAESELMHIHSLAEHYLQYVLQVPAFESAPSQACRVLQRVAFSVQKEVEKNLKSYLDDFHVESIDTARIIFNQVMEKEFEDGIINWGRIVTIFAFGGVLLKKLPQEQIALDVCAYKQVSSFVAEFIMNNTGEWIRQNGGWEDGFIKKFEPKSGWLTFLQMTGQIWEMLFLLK
It counts as functional.

For assay [8], the target named is T3, Ubiquitin-conjugating enzyme E2 N. The class given is functional. This is another data set of the same source.
In a further assay the target is Procathepsin L (Homo sapiens, UniProt P07711). Put plainly: CTSL1 protease inhibition – biochemical, QFRET, 1536-well, counter-screen for M1/M17 aminopeptidase inhibitor project, dose response (AID 2214).
Chain of Procathepsin L (P07711 whole entry): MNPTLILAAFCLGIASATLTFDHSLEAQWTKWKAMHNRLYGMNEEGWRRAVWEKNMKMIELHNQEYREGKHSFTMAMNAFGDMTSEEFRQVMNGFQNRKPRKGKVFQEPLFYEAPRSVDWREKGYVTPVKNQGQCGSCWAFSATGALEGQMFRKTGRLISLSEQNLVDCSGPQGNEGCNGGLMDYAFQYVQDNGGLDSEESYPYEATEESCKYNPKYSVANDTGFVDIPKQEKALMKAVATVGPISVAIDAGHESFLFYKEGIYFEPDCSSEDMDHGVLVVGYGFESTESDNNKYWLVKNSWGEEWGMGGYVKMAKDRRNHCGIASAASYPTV
The target of a further assay is T5, Aminopeptidase N (Plasmodium falciparum FcB1/Columbia, UniProt O96935).
T5 sequence (O96935 whole entry): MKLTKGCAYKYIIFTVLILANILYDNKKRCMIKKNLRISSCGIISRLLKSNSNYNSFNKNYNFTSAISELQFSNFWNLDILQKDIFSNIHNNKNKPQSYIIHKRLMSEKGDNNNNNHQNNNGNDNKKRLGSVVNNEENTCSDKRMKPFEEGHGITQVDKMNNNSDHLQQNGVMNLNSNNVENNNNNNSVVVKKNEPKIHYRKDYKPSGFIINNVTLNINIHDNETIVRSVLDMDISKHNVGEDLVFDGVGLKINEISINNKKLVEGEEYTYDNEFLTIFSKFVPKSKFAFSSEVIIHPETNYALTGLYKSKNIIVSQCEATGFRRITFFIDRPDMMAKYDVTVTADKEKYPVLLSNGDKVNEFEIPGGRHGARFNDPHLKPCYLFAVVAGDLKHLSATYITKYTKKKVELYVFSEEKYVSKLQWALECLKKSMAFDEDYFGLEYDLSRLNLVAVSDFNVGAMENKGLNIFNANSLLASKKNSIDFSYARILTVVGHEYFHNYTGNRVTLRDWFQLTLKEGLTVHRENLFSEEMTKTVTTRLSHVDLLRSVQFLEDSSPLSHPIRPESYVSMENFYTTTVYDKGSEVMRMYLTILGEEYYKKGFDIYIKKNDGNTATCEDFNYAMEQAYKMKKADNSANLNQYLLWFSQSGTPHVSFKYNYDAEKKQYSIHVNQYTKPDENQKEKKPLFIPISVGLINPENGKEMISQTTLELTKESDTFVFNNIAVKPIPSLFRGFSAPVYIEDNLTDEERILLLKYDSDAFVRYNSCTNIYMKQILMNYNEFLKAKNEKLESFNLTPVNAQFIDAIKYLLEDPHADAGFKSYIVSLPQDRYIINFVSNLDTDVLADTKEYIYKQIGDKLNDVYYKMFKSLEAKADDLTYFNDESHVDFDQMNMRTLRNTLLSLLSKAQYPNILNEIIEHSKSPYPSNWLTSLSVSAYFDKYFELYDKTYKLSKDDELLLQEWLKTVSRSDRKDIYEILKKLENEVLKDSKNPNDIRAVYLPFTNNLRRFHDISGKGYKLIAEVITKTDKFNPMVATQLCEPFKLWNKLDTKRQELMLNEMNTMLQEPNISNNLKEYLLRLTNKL
Put plainly: malaria alanyl aminopeptidase activity blockers – biochemical, fluorogenic H-Leu-NHMec substrate, 1536-well (AID 1445). The arrangement: species or system Plasmodium falciparum 3D7, 3D7.

The target of a further assay is T6, Aspartyl aminopeptidase (Plasmodium falciparum 3D7, UniProt Q8I2J3).
T6 sequence (Q8I2J3 whole entry): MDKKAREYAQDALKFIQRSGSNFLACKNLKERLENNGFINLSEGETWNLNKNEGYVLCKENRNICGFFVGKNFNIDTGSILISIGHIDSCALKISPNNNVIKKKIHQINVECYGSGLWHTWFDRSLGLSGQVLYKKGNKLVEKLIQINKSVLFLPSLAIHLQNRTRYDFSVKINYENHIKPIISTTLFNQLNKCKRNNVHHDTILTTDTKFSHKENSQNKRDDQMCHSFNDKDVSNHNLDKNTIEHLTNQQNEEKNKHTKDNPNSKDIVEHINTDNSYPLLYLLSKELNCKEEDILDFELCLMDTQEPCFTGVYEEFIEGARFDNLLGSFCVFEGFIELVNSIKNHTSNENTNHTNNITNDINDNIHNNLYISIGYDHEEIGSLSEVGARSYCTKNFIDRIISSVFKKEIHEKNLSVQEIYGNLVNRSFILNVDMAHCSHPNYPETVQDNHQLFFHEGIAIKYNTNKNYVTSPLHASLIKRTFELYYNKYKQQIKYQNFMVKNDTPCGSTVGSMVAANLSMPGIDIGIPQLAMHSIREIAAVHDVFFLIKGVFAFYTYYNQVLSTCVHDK
Put plainly: Counterscreen for inhibitors of M1 and M17 aminopeptidases: QFRET-based biochemical high throughput dose response assay for inhibitors of the Plasmodium falciparum M18 Aspartyl Aminopeptidase (PFM18AAP). [Related PubChem assays: 1619 (Screening assay (M17LAP inhibitors).), 1445 (Screening assay (M1AAP inhibitors).)].

Assay [9] has as its target T7, Corticotropin-releasing factor receptor 2/Corticotropin-releasing factor-binding protein (Homo sapiens, UniProt P24387+Q13324).
T7 sequence (Q13324 whole entry): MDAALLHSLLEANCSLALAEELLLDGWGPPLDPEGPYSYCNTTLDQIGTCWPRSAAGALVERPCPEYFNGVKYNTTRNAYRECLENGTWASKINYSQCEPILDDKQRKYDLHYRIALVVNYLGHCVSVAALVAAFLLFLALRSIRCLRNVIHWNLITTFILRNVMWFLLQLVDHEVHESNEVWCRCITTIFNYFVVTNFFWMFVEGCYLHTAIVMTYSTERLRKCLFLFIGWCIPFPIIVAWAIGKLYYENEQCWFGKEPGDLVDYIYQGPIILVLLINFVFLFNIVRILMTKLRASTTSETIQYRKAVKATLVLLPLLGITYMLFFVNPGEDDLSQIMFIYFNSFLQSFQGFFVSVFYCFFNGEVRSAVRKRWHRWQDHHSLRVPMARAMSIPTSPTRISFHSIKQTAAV
T7 sequence (P24387 whole entry): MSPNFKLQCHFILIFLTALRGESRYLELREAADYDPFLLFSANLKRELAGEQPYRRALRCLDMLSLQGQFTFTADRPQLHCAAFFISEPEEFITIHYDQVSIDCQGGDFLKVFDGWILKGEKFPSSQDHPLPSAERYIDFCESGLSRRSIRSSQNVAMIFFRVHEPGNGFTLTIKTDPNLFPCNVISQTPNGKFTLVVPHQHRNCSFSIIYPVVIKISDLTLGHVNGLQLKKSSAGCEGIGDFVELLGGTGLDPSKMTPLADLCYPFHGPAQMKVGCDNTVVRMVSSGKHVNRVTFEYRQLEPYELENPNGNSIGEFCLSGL
Description: activators of CRF receptor 2 with binding protein – uHTS hits, confirmation (AID 602473). Conditions: read-out: EC50_Mean. The class given is functional.

Chain of Mucolipin-3 (Q8TDD5 whole entry): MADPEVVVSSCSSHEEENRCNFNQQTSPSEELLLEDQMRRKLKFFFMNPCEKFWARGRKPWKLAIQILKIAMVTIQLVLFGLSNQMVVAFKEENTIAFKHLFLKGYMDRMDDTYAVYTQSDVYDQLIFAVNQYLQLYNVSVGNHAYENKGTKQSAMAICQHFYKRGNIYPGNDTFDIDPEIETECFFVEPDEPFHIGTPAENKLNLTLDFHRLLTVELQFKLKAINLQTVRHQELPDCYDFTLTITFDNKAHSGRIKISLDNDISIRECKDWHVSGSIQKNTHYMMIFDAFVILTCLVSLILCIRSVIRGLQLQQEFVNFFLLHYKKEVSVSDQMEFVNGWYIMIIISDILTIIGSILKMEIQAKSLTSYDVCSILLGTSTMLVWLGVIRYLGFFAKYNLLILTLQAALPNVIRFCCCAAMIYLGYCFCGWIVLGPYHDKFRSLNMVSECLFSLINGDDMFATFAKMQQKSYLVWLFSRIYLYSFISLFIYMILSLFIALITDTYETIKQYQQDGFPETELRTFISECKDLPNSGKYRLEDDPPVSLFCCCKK

With `COc1ccc(N2C(=O)C(F)(F)C2c2ccccc2F)cc1` (stereo not drawn), the EC50 at Mucolipin-3 is 3.96 µM (active); on Ion channel NompC it was > 29.9 µM (not active).

As for `Cc1cccc(C)c1Nc1nc2ccccc2o1`, the IC50 (usually the concentration needed to halve the response being measured) in assay [1] was 26.7 µM (active).

In the case of `CCCCC1=NN2C(=N)/C(=C/c3c[nH]c4ccccc34)C(=O)N=C2S1`, the IC50 in [1] is 61.7 µM (active).

Regarding `COC(=O)CCC(=O)OC1(C)C(=O)C2=CN(CC(C)C)C(c3ccc(OC)cc3)=CC2=C(Br)C1=O` (stereo not drawn), the IC50 in assay [2] is listed as 37.5 µM (not active); in [3], 28.3 µM (not active).

Turning to `Cc1cc(Cl)ccc1C(=O)C1CCCN(C(=O)c2snnc2C)C1` (stereo not drawn), the EC50 in assay [4] is > 120 µM (not active).

Regarding `COc1ccccc1C(=O)Nc1ccc(N2CCCCC2)cc1`, the EC50 in assay [5] is 2.91 µM (active). In addition, in assay [6], the AC50 (in general, the midpoint of the concentration-response curve, whichever way the signal moves) was 13.4 µM (active).

For the compound `CC(=O)N1NC(=C2C(=O)N(C)C(=O)N(C)C2=O)CC1c1ccccc1` (stereo not drawn), the IC50 in [7] is 19.5 µM (active); at Bcl-2-related protein A1, > 20 µM (inactive); in assay [8], 12.5 µM (active); against Procathepsin L it was > 59.6 µM (not active); at Aminopeptidase N it was 16 µM (active); on Aspartyl aminopeptidase, > 73.5 µM (not active).

Turning to `COc1ccccc1N(CC(=O)N1CCCCC1)S(=O)(=O)c1ccccc1`, the values for the EC50 (on Mucolipin-3; in [9]; at Ion channel NompC) were 0.59 µM (active), 8.61 µM (active) and 12.4 µM (not active), respectively.
